# Measurements published in publication PMC8222254, “Self-assembly of an anion receptor with metal-dependent kinase inhibition and potent in vitro anti-cancer properties” (Nature Communications, 2021).
# Values joined by “and” are separate entries in the source; they are usually repeats but may differ in a detail not shown here. Identical values can stand only once. Like-named read-outs stand apart in the source and are kept apart here.
# Columns and labels:
# Test in all cases: Chemosensitivity, 96 h continuous exposure, MTT assay
# Assay type in all cases: cell-based, human
# MiaPaCa2 = settings: for IC50: MiaPaCa2, 96 h, MTT; for SI (ARPE19): mean IC50 ARPE-19 / mean IC50 MiaPaCa2
# Excerpt: (§1) All cell lines were purchased from and maintained as monolayers as described by the American Type Culture Collection with the exception of the p53^+/+ and p53^−/− isogenic clones of HCT116 human colorectal adenocarcinoma cells which were a kind gift from Professor Bert Vogelstein[54]. GBM1 cells were established from a primary GBM tumour by Heiko Wurdak and colleagues[32],[33]. Non-cancerous adult brain neural progenitor (NP1) cells were derived from a patient undergoing surgery to treat epilepsy[32],[33]. Cell culture and growth media for NP1 and GBM1 cells were as described[32],[33]. The response of cells following a continuous 96-h exposure to test compounds and platinates was determined using the MTT assay. Potency was recorded as the IC50 and the selectivity index (SI) was defined as the ratio of IC50 values for non-cancer to cancer cell lines with values >1 representing selectivity for cancer cells as opposed to non-cancer cells.
# (§2) All cell lines used were maintained at low passage in antibiotic-free media. HT29, DLD-1, HCT116 p53^+/+ and HCT116 p53^−/− are all colorectal adenocarcinoma cell lines derived from different individuals and harbour different combinations of oncogenic lesions (except for the HCT116 isogenic cancer cell clones that are genetically identical except for p53 status). PSN-1, BxPC-3 and MiaPaCa2 are pancreatic carcinoma cell lines and A549 and H460 are lung carcinoma cell lines. HT29, DLD-1, PSN-1, BxPC-3, A549 and H460 cell lines were cultured in RPMI-1640 growth media (Sigma) containing 2 mM L-glutamine, 1 mM sodium pyruvate and 10% foetal bovine serum (FBS). HCT116 (p53^+/+ and p53^−/−) and MiaPaCa2 cell lines were cultured in Dulbecco’s Modified Eagle’s Medium (Sigma), 2 mM L-glutamine and 10% FBS. The ARPE-19 retinal epithelial non-cancer cell line was cultured in DMEM/F12 media (Gibco), 2 mM L-glutamine, 1 mM sodium pyruvate and 10% FBS. The MCF10A non-cancerous human breast epithelial cell line was cultured in Minimal Essential Media Eagle (Sigma), 2 mM L-glutamine, 1 mM sodium pyruvate, 10% FBS and 1x non-essential amino acids (NEAA). NP1 and GBM1 cells were cultured on plasticware coated with poly-L-ornithine (5 µg/ml) and laminin (2.4 µg/ml)[32],[33]. NP1 cells were grown in DMEM/F12 media (Gibco) supplemented with 5% FBS, 20 ng/ml hFGF, 20 ng/ml rhEGF, 0.5x B-27 supplement (Gibco), 0.5x N-2 supplement (Gibco) and 1x GLUTAMAX (Gibco). GBM1 cells were cultured in Neurobasal media (Gibco) supplemented with 40 ng/ml hFGF, 40 ng/ml rhEGF, 0.5x B-27 supplement (Gibco) and 0.5x N-2 supplement (Gibco).
# (§3) [L2(Metal)3]^6+ and all the other self-assembling complexes were freshly formed by adding DMSO to individual components and mixing together by pipetting. These were then further diluted in cell culture media such that the final DMSO concentration that cells were exposed to was 0.2% (vehicle control). Cisplatin, oxaliplatin and carboplatin were dissolved in phosphate buffered saline. Cell lines were seeded into 96 well plates at 2 × 10^3 cells per well and incubated overnight at 37 °C. GBM1 cancer stem-like cells were seeded at 3 × 10^3 cells per well and NP1 neural progenitors were seeded at 1.5 × 10^3 cells per well. The following day, media was removed and replaced with fresh media containing test compounds at a range of concentrations. Cells were incubated with test compounds for a further 96 h after which the media was removed and replaced with fresh media (200 μl/well). MTT was added (20 μl at 5 mg/ml) and cells were incubated for a further 4 h. Media and MTT were removed and formazan crystals were dissolved in 150 μl of DMSO and the absorbance of the resulting solution determined at 540 nm. Dose response curves were constructed, and the concentration required to reduce cell growth by 50% (IC50) determined.
# HCT116 p53+/+ = settings: for SI (ARPE19): mean IC50 ARPE-19 / mean IC50 HCT116 p53+/+; for Selectivity index (ARPE19): IC50 ARPE-19 / IC50 HCT116 p53+/+
# Excerpt: as §1, §2, §3
# ARPE-19 non-cancer cells = tested on: ARPE-19 non-cancer cells
# Excerpt: as §1, §2, §3
# HCT116 p53-/- = settings: for SI (ARPE19): mean IC50 ARPE-19 / mean IC50 HCT116 p53-/-; for Selectivity index (ARPE19): IC50 ARPE-19 / IC50 HCT116 p53-/-
# Excerpt: as §1, §2, §3
# [1] = individual run, read-out: IC50 values for each replicate
# [2] = mean of at least 3 independent experiments, read-out: Mean IC50
# [3] = HCT116 p53+/+, 96 h, MTT, individual run, read-out: IC50 values for each replicate
# [4] = HCT116 p53+/+, 96 h, MTT, mean of at least 3 independent experiments, read-out: Mean IC50
# [5] = ARPE-19, 96 h, MTT, individual run, read-out: IC50 values for each replicate
# [6] = ARPE-19, 96 h, MTT, mean of at least 3 independent experiments, read-out: Mean IC50
# [7] = HCT116 p53-/-, 96 h, MTT, individual run, read-out: IC50 values for each replicate
# [8] = HCT116 p53-/-, 96 h, MTT, mean of at least 3 independent experiments, read-out: Mean IC50
# [9] = HCT116 p53+/+, individual replicate experiments, read-out: IC50 values
# [10] = ARPE19, individual replicate experiments, read-out: IC50 values
# [11] = HCT116 p53-/-, individual replicate experiments, read-out: IC50 values
# [12] = HCT116 p53+/+, read-out: Mean IC50 values
# [13] = ARPE-19 non-cancer, read-out: Mean IC50 values
# [14] = HCT116 p53-/-, read-out: Mean IC50 values
SMILES,IC50 (MiaPaCa2; [1]),IC50 (MiaPaCa2; [2]) [µM],SI (ARPE19) (MiaPaCa2),IC50 (HCT116 p53+/+; [3]),IC50 (HCT116 p53+/+; [4]) [µM],SI (ARPE19) (HCT116 p53+/+),IC50 (ARPE-19 non-cancer cells; [5]),IC50 (ARPE-19 non-cancer cells; [6]) [µM],IC50 (HCT116 p53-/-; [7]),IC50 (HCT116 p53-/-; [8]) [µM],SI (ARPE19) (HCT116 p53-/-),IC50 (HCT116 p53+/+; [9]),Selectivity index (ARPE19) (HCT116 p53+/+),IC50 (ARPE-19 non-cancer cells; [10]),IC50 (HCT116 p53-/-; [11]),Selectivity index (ARPE19) (HCT116 p53-/-),IC50 (HCT116 p53+/+; [12]) [µM],IC50 (ARPE-19 non-cancer cells; [13]) [µM],IC50 (HCT116 p53-/-; [14]) [µM],also measured
"N.N.O=C([O-])C1(C(=O)[O-])CCC1.[Pt+2] [Carboplatin, carboplatin, reference compound]",30.3 µM and 44.7 µM and 31.8 µM,35.6,2.184,43.3 µM and 21 µM and 32.9 µM,32.4,2.401,87.6 µM and 79 µM and 66.6 µM,77.7,45.8 µM and 28.2 µM and 33.1 µM,35.7,2.177,–,–,–,–,–,–,–,–,–
"N.N.[Cl][Pt][Cl] [Cisplatin, cisplatin, reference compound]",3.69 µM and 2.84 µM and 4.32 µM,3.62,1.771,2.84 µM and 3.35 µM and 3.58 µM,3.26,1.966,6.07 µM and 7.48 µM and 5.69 µM,6.41,7.14 µM and 7.16 µM and 8.27 µM,7.52,0.852,–,–,–,–,–,–,–,–,–
c1ccc(-c2csc(NCCN(CCNc3nc(-c4ccccc4)cs3)CCNc3nc(-c4ccccc4)cs3)n2)cc1 [L],–,–,–,–,–,–,–,–,–,–,–,0.173 µM and 0.524 µM and 0.141 µM,19.369 and 19.36,4.96 µM and 6.38 µM,0.074 µM and 0.081 µM,77.506,–,–,–,"IC50 (HCT116 p53+/+; Homo sapiens, HCT-116, HCT116 p53+/+, read-out: Mean IC50 values): 0.279 µM; IC50 (ARPE-19 non-cancer cells; Homo sapiens, ARPE-19, ARPE19, individual replicate experiments, read-out: IC50 values): 4.89 µM; IC50 (ARPE-19 non-cancer cells; Homo sapiens, ARPE-19, ARPE-19 non-cancer, read-out: Mean IC50 values): 5.41 µM; IC50 (HCT116 p53-/-; Homo sapiens, HCT-116, HCT116 p53-/-, individual replicate experiments, read-out: IC50 values): 0.054 µM; IC50 (HCT116 p53-/-; Homo sapiens, HCT-116, HCT116 p53-/-, read-out: Mean IC50 values): 0.07 µM"
"O=C1[O][Pt]2([NH][C@@H]3CCCC[C@H]3[NH]2)[O]C1=O [Oxaliplatin, oxaliplatin, reference compound]",5.23 µM and 7.06 µM and 7.02 µM,6.44,0.484,1.05 µM and 0.89 µM and 0.84 µM,0.93,3.355,2.83 µM and 3.1 µM and 3.39 µM,3.12,5.46 µM and 2.46 µM and 3.06 µM,3.67,0.850,–,–,–,–,–,–,–,–,–
[Cu+2].c1ccc(-c2csc(NCCN(CCNc3nc(-c4ccccn4)cs3)CCNc3nc(-c4ccccn4)cs3)n2)nc1 [[LCu]2+],–,–,–,–,–,–,–,–,–,–,–,0.512 µM and 0.583 µM and 0.251 µM,13.19,5.93 µM and 5.5 µM and 6.33 µM,0.049 µM and 0.045 µM and 0.083 µM,100.09,0.449,5.92,0.059,–
[Zn+2].c1ccc(-c2csc(NCCN(CCNc3nc(-c4ccccn4)cs3)CCNc3nc(-c4ccccn4)cs3)n2)nc1 [[LZn]2+],–,–,–,–,–,–,–,–,–,–,–,0.483 µM and 0.549 µM and 0.244 µM,11.94,5.39 µM and 4.76 µM and 5.09 µM,0.054 µM and 0.063 µM and 0.087 µM,74.47,0.425,5.08,0.068,–
